# Test results taken from patent publication US11999782B2, “Therapeutic agents for the treatment of diseases associated with undesired cell proliferation” (Fundació Privada Institutció Catalana de Recerca I Estudis …, priority 2009, dated 2024).
# How the values were obtained:
# GBM neurospheres = test: Differentiation of GBM neurospheres (neuroprogenitor markers, adhesion); format: cell-based, human; details: 7 days without EGF or FGF; for adhesion to the culture plate / morphology versus control cells: GBM neurospheres, poly-L-lysine
# Experimental: FIG. 7. TGFβ and LIF prevent the differentiation of GBM neurospheres. (A) Immunocytochemistry of the indicated proteins was performed in neurospheres derived from GBM1 treated with 100 pM TGFβ1 or 20 ng/ml LIF for 7 days in the absence of growth factors and the last 3 days on slides coated with poly-L-lysine. (B) The mRNA levels of Musashi-1 (Msi-1), Sox2 and Nestin were determined in GBM1 neurospheres after 7 days of the indicated treatments without growth factors. The RNA levels of 18S were used as an internal normalization control.
# The immunocytochemistry of neurospheres and differentiated neurospheres was performed as described (Geshwind et al., 2001) using the following antibodies: anti-nestin (Chemicon), anti-GFAP (Dako), anti-TuJ1 (Chemicon), anti-04 (Chemicon), anti-Sox2 (Chemicon), anti-α-tubulin (Sigma). The nuclei were counterstained with 4′,6-diamino-2-phenylindole (DAPI).
# qRT-PCR was performed using Taqman probes from Applied Biosystems, according to the manufacturer's recommendations. The reactions were carried out in a ABI 7000 sequence detector (Perkin Elmer) and the results were expressed as the fold change calculated by means of the DDCt method relative to the control sample or the first quantified sample. The ribosomal unit of 18S or β-actin were used as internal normalization controls.
# The neurospheres derived from GBMs grown in the absence of growth factors and seeded in poly-L-lysine-coated plates tend to differentiate losing the expression of the neuroprogenitor markers Musashi-1, Sox2 and Nestin, and being adhered to the culture plate. It was decided to evaluate the effect of TGFβ and LIF on this differentiation process. The neurospheres were cultured in the presence of TGFβ or LIF without EGF or FGF for 7 days and subsequently processed for immunohistochemical staining and qRT-PCR assays for determining the levels of the neuroprogenitor markers Musashi-1, Sox2 and Nestin.
# [1] = test system: normal human neuroprogenitors; test: Self-renewal assay of normal human neuroprogenitor neurospheres; format: cell-based; details: 100 pM TGFβ1 or 20 ng/ml LIF, 7 days
# Experimental: FIG. 8. Effect of TGFβ on the capacity of self-renewal of normal human neuroprogenitors. (A) Immunocytochemistry of the indicated markers was performed in human neuroprogenitor neurospheres. (B) Neurospheres of the sample of GBM1 and of human neuroprogenitors were incubated with the indicated members of the 100 pM TGFβ family for 3 hours and the mRNA levels of LIF were determined. (C, D) Neurosphere cells of normal human neuroprogenitors were incubated in the same conditions that have been described above in FIG. 1D in the presence of 100 pM TGFβ1 or 20 ng/ml LIF for 7 days and the number of newly formed neurospheres (C) and the number total of cells (D) were determined.
# The U373MG and A172 cells were a generous gift from J. Rich and D. Bigner and were cultured in DMEM with 10% fetal bovine serum (FBS). The primary culture of tumor cells (PCTC) and the GBM neurospheres were generated as described (Bruna et al., (2007) Cancer Cell 11, 147-160; Gunther et al., (2008) Oncogene. May 1; 27(20):2897-909). Briefly, the samples of tumors were processed in the 30 minutes after the surgical resection. The ground pieces of the samples of human gliomas were digested with 200 U/ml collagenase I (Sigma) and 500 U/ml of DNase I (Sigma) in PBS for 2 hours at 37° C. and with constant vigorous stirring. The suspension of individual cells was filtered through a 70 μm cell filter (BD Falcon) and washed with PBS. Finally, the cells were resuspended and subsequently cultured in DMEM with 10% FBS, for the culture of PCTCs, or in neurosphere medium in the case of the GBM neurospheres. The neurospheres of normal human neuroprogenitors were generated from human embryonic cerebral cortex tissue (12-16 weeks after the conception) collected after voluntary abortions. The samples were processed and cultured as described (Poltavtseva et al. (2002) Brain Res Dev Brain Res 134, 149-154). The neurosphere medium consists of neurobasal medium (Gibco) supplemented with B27 (Gibco), L-glutamine (Gibco), penicillin/streptomycin, and growth factors (20 ng/mL EGF and 20 ng/mL FGF-2 (Peprotech)).
# The self-renewal of the neurospheres was evaluated by seeding an identical number of cells at a very low density in wells of a 96-well plate. The cells were treated, in the absence of growth factors, with the indicated compounds and the total number of new neurospheres formed after 7 days in culture was counted (Lee et al. (2008) Cancer Cell 13, 69-80; Reynolds and Weiss, (1996) Dev Biol 175, 1-13; Seaberg and van der Kooy, (2002) J Neurosci 22, 1784-1793).
# It was decided to assess whether this effect was specific to tumor cells or was also present in normal neuroprogenitor cells. To answer this question, neuroprogenitor cells were obtained from samples of human fetal cerebral cortex (from 12 to 16 weeks after conception). As has been previously described (Carpenter et al., 1999, Exp Neurol, 158: 265-278; Poltavtseva et al., 2002, Brain Res Dev Brain Res, 134: 149-154; Wright et al., 2003, J Neurochem, 86: 179-195), human neuroprogenitors generated neurospheres when they were grown in serum-free medium supplemented with EGF and FGF and these neurospheres expressed Musashi-1, Sox2 and Nestin similarly to GBM neurospheres (FIG. 8A). First, it was determined if TGFβ induced LIF in normal human neuroprogenitors. […] In fact, the neurospheres treated with TGFβ were smaller and the total number of cells had decreased due to the presence of TGFβ (FIG. 8C, 8D). On the other hand, LIF increased the number and size of the newly formed neurospheres as well as the total number of cells (FIG. 8C, 8D) according to previous articles (Bauer and Patterson, 2006; Wright et al., 2003). Thus, LIF has the same effect on the self-renewal in GBM and normal neurospheres. On the contrary, there is a difference in the effect of TGFβ on the capacity for self-renewal of normal and tumor neurospheres due to the incapacity of TGFβ to induce LIF normal in neuroprogenitors.
Substance,"expression of Musashi-1, Sox2 and Nestin (immunocytochemistry, qRT-PCR) (GBM neurospheres; GBM1 neurospheres, 100 pM TGFβ1 or 20 ng/ml LIF)",adhesion to the culture plate / morphology versus control cells (GBM neurospheres),number of newly formed neurospheres (normal neuroprogenitors) [1],size of neurospheres (normal neuroprogenitors) [1],total number of cells (normal neuroprogenitors) [1]
"LIF: recombinant leukemia inhibitory factor, an IL-6 type cytokine (Chemicon)",maintained the expression,adhered less to the culture plate,increased,increased,increased
"TGFβ: TGFβ1 (R&D Systems), used at 100 pM according to the figure legends",–,adhered less to the culture plate,did not increase,smaller,decreased
